In patent US20240415819A1, “MACROCYCLIC COMPOUNDS AS PROTEASOME SUBUNIT BETA TYPE-5 INHIBITORS” (Lead Discovery Center GmbH, priority 2021, published 2024):

How the values were obtained:
hPMBC = assay: Chymotrypsin-like ProteasomeGlo assay in hPBMC; format: cell-based; settings: Homo sapiens; read-out: Pglo hPBMC
In short: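 B cells isolated from human PBMC (buffy coats, density gradient, magnetic isolation). Cells treated with compound for 105 min at 37 °C, with staurosporine and DMSO included. Chymotrypsin-like proteasome activity read by luminescence with Suc-LLVY-Glo substrate to derive IC50.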

HT-29 cells = assay: CellTiter-Glo luminescent cell viability assay with HT-29 cells (72h incubation); format: cell-based, human; settings: Homo sapiens, HT-29, HT29 cells, read-out: CTG HT29
In short: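 400 cells per well in DMEM/10% FCS were dosed after 24 h and kept 72 h at 37 °C, 5% CO2. ATP-based luminescence (CellTiter-Glo) normalized to DMSO and 10 μM staurosporine controls; IC50 by dose-response fit.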

[1] = molecular target: T1, β5 subunit of the human constitutive proteasome (CPS) (Homo sapiens, UniProt P28074); assay: β5 inhibition assay, human constitutive proteasome (Suc-LLVY-AMC); format: biochemical; settings: IC50 class, Suc-LLVY-AMC substrate
T1 construct: purchased Boston Biochem E-360
Method: The enzymatic activity of the β5 subunit of the human constitutive proteasome (CPS) is analyzed. In another assay, which differs from the assay of the human constitutive proteasome only in using the human immunoproteasome (IPS) the enzymatic activity of the β5 subunit of the human immunoproteasome (IPS) is analyzed. […] Inhibition is indicated as IC50 [nM] (“-”=not measured).

IC50 (hPMBC) | IC50 (HT-29 cells) | IC50 [1] | SMILES
500 to 1000 nM | 100 to 500 nM | 500 to 1000 nM | Cc1ccc2cc1CNC(=O)[C@H](CCc1ccccc1)NC(=O)[C@@H](NC(=O)OCc1ccccc1)CCCC(=O)N1CCCC3(CC(C3)O2)C1 [Compound 283, benzyl ((7S,10S)-34-methyl-6,9,14-trioxo-7-phenethyl-2-oxa-5,8-diaza-15(3,1)-piperidina-3(1,3)-benzena-1(1,3)-cyclobutanapentadecaphane-10-yl)carbamate]
< 100 nM | < 100 nM | < 100 nM | CC(=O)N[C@H]1CC(=O)N2CCCC(CCOc3ccc(C)c(c3)CNC(=O)C(CCC3CCN(C(C)=O)CC3)NC1=O)C2 (stereo partly drawn) [Compound 338, N-((12S)-9-(2-(1-acetylpiperidin-4-yl)ethyl)-5^4-methyl-8,11,14-trioxo-4-oxa-7,10-diaza-1(3,1)-piperidina-5(1,3)-benzenacyclotetradecaphane-12-yl)acetamide]
< 100 nM | 100 to 500 nM | 100 to 500 nM | Cc1ccc2cc1CNC(=O)C(c1cnn(C)c1)NC(=O)[C@@H](NC(=O)CN1CCCC1)CC(=O)N1CCCC(CCO2)C1 (stereo partly drawn) [Compound 358, N-((12S)-5^4-methyl-9-(1-methyl-1H-pyrazol-4-yl)-8,11,14-trioxo-4-oxa-7,10-diaza-1(3,1)-piperidina-5(1,3)-benzenacyclotetradecaphane-12-yl)-2-(pyrrolidin-1-yl)acetamide]
< 100 nM | < 100 nM | < 100 nM | CC(=O)N[C@H]1CC(=O)N2CCCC(CCOc3ccc(C)c(c3)CNC(=O)C(c3coc(C)n3)NC1=O)C2 (stereo partly drawn) [Compound 553, N-((12S)-5^4-methyl-9-(2-methyloxazol-4-yl)-8,11,14-trioxo-4-oxa-7,10-diaza-1(3,1)-piperidina-5(1,3)-benzenacyclotetradecaphane-12-yl)acetamide]
< 100 nM | 100 to 500 nM | < 100 nM | Cc1ccc2cc1CNC(=O)[C@H](CCc1ccccc1)NC(=O)[C@@H](NC(=O)Cc1nnc(N)[nH]1)CC(=O)N1CCCC(CCO2)C1 (stereo partly drawn) [Compound 340, 2-(5-amino-1H-1,2,4-triazol-3-yl)-N-((9S,12S)-5^4-methyl-8,11,14-trioxo-9-phenethyl-4-oxa-7,10-diaza-1(3,1)-piperidina-5(1,3)-benzenacyclotetradecaphane-12-yl)acetamide]
< 100 nM | < 100 nM | < 100 nM | Cc1ccc2cc1CNC(=O)C(CCc1ccncc1)NC(=O)[C@@H](NC(=O)Cc1nnc(N)s1)CC(=O)N1CCCC(CCO2)C1 (stereo partly drawn) [Compound 342, 2-(5-amino-1,3,4-thiadiazol-2-yl)-N-((12S)-5^4-methyl-8,11,14-trioxo-9-(2-(pyridin-4-yl)ethyl)-4-oxa-7,10-diaza-1(3,1)-piperidina-5(1,3)-benzenacyclotetradecaphane-12-yl)acetamide]
< 100 nM | < 100 nM | < 100 nM | CC(=O)N[C@H]1CC(=O)N2CCCC(CCOc3ccc(C)c(c3)CNC(=O)C(c3cc(C)n(C)n3)NC1=O)C2 (stereo partly drawn) [Compound 561, N-((12S)-9-(1,5-dimethyl-1H-pyrazol-3-yl)-5^4-methyl-8,11,14-trioxo-4-oxa-7,10-diaza-1(3,1)-piperidina-5(1,3)-benzenacyclotetradecaphane-12-yl)acetamide]
100 to 500 nM | < 100 nM | < 100 nM | Cc1ccc2cc1CNC(=O)[C@H](CCc1ccccc1)NC(=O)[C@@H](NC(=O)c1ccc3cc(N)ccc3c1)CC(=O)N1CCCC(CCO2)C1 (stereo partly drawn) [Compound 339, 6-amino-N-((9S,12S)-5^4-methyl-8,11,14-trioxo-9-phenethyl-4-oxa-7,10-diaza-1(3,1)-piperidina-5(1,3)-benzenacyclotetradecaphane-12-yl)-2-naphthamide]
< 100 nM | < 100 nM | < 100 nM | Cc1ccc2cc1CNC(=O)C(CCc1ccncc1)NC(=O)[C@@H](NC(=O)C1(c3ccc(N)cc3)CC1)CC(=O)N1CCCC(CCO2)C1 (stereo partly drawn) [Compound 343, 1-(4-aminophenyl)-N-((12S)-5^4-methyl-8,11,14-trioxo-9-(2-(pyridin-4-yl)ethyl)-4-oxa-7,10-diaza-1(3,1)-piperidina-5(1,3)-benzenacyclotetradecaphane-12-yl)cyclopropane-1-carboxamide]
< 100 nM | 100 to 500 nM | < 100 nM | CC(=O)N[C@H]1CC(=O)N2CCCC(CCOc3ccc(C)c(c3)CNC(=O)C(c3cn(C)cn3)NC1=O)C2 (stereo partly drawn) [Compound 557, N-((12S)-5^4-methyl-9-(1-methyl-1H-imidazol-4-yl)-8,11,14-trioxo-4-oxa-7,10-diaza-1(3,1)-piperidina-5(1,3)-benzenacyclotetradecaphane-12-yl)acetamide]
< 100 nM | < 100 nM | < 100 nM | COc1cccc(CC(=O)N[C@H]2CC(=O)N3CCCC(CCOc4ccc(C)c(c4)CNC(=O)C(c4cnn(C)c4)NC2=O)C3)c1 (stereo partly drawn) [Compound 362, 2-(3-methoxyphenyl)-N-((12S)-5^4-methyl-9-(1-methyl-1H-pyrazol-4-yl)-8,11,14-trioxo-4-oxa-7,10-diaza-1(3,1)-piperidina-5(1,3)-benzenacyclotetradecaphane-12-yl)acetamide]
< 100 nM | < 100 nM | < 100 nM | Cc1ccc2cc1CNC(=O)[C@H](CCc1ccccc1)NC(=O)[C@@H](NC(=O)OCc1ccccc1)CC(=O)N1CC(C)CC(CCO2)C1 (stereo partly drawn) [Compound 337, benzyl ((9S,12S)-1^5,5^4-dimethyl-8,11,14-trioxo-9-phenethyl-4-oxa-7,10-diaza-1(3,1)-piperidina-5(1,3)-benzenacyclotetradecaphane-12-yl)carbamate]
< 100 nM | < 100 nM | < 100 nM | CC(=O)N[C@H]1CC(=O)N2CCCC(CCOc3ccc(C)c(c3)CNC(=O)C(Cn3c(=O)oc4ccccc43)NC1=O)C2 (stereo partly drawn) [Compound 555, N-((12S)-5^4-methyl-8,11,14-trioxo-9-((2-oxobenzo[d]oxazol-3(2H)-yl)methyl)-4-oxa-7,10-diaza-1(3,1)-piperidina-5(1,3)-benzenacyclotetradecaphane-12-yl)acetamide]
< 100 nM | < 100 nM | < 100 nM | Cc1ccc2cc1CNC(=O)[C@H](CCc1ccccc1)NC(=O)[C@@H](NC(=O)OCc1ccccc1)CCC(=O)N1CCC(CCO2)C1 (stereo partly drawn) [Compound 350, benzyl ((9S,12S)-5^4-methyl-8,11,15-trioxo-9-phenethyl-4-oxa-7,10-diaza-1(3,1)-pyrrolidina-5(1,3)-benzenacyclopentadecaphane-12-yl)carbamate]
100 to 500 nM | < 100 nM | < 100 nM | Cc1ccc2cc1CNC(=O)C(CCc1cnc3nccnc3c1)NC(=O)[C@@H](NC(=O)OCc1ccccc1)CC(=O)N1CCCC(CCO2)C1 (stereo partly drawn) [Compound 505, benzyl ((12S)-5^4-methyl-8,11,14-trioxo-9-(2-(pyrido[2,3-b]pyrazin-7-yl)ethyl)-4-oxa-7,10-diaza-1(3,1)-piperidina-5(1,3)-benzenacyclotetradecaphane-12-yl)carbamate]
< 100 nM | < 100 nM | < 100 nM | Cc1ccc2cc1CNC(=O)[C@H](CCc1ccccc1)NC(=O)[C@@H](NC(=O)Cc1cc(O)on1)CC(=O)N1CCCC(CCO2)C1 (stereo partly drawn) [Compound 335, 2-(5-hydroxyisoxazol-3-yl)-N-((9S,12S)-5^4-methyl-8,11,14-trioxo-9-phenethyl-4-oxa-7,10-diaza-1(3,1)-piperidina-5(1,3)-benzenacyclotetradecaphane-12-yl)acetamide]
